Measurements: patent US20130045947A1, “PLA2ACTIVITY AS A MARKER FOR OVARIAN AND OTHER GYNECOLOGIC CANCERS” (INDIANA UNIVERSITY RESEARCH AND TECHNOLOGY CORPORATION, priority 2010, published 2013)
“Also recorded” adds a separate entry of the source.

Key:
SKOV3 cells [1] = assay: Migration of SKOV3 cells to RAW 264.7 macrophage CM; format: cell-based, human; conditions: MK571 50 μM, glyburide 500 μM; FIG. 12C
Procedure: Referring now to FIG. 12C, CM from RAW 264.7 mouse macrophages was tested to determine if it would stimulate migration of SKOV3 cells. Migration of SKOV3 cells to 17-hr CM from untreated cells and cells treated with inhibitors (MK571, 50 μM, CsA, 10 μM, glyburide, 500 μM, and MAFP, 20 μM). ***, P<0.001 compared to CM. Data is mean and SD of three membranes; experiment repeated twice. An approximately 2-fold increase in migration with the CM compared to the medium control in the bottom well of the migration chamber was found. […] The addition of MAFP to the CM also abrogated migration.

[2] = test system: RAW 264.7 mouse macrophages; assay: PLA2 activity in conditioned medium (CM) of macrophages; format: cell-based; conditions: for order of effectiveness in reducing PLA2 activity of CM: ABC transporter inhibitors; for effect on PLA2 activity of CM: cells treated 4 hr, 17-hr CM, MK571 10-50 μM, CsA 2-50 μM, glyburide 0.1-2 mM, FIG. 12B; for effect on PLA2 activity detected in CM: exosome secretion inhibitors, DMA 5 and 12.5 nM, MBC 1 and 2 mM
SKOV3 cells [3] = assay: Cell migration assay, SKOV3 cells; format: cell-based, human; conditions: for stimulation of migration: SKOV3 cells, FIG. 10D; for effect on migration of SKOV3 cells induced by S1 fractions: inhibitor in lower chamber, two different S1 fractions, FIG. 10A
Procedure: In order to determine whether PLA2 and ATX were functionally involved in ascites-induced migration of EOC cells, the inhibitors MAFP, BEL, and HA130 were added to the lower chambers during the assay. […] The effect of each inhibitor was almost identical whether using S1, S3, or S4 fractions (FIG. 10 and data not shown).

SKOV3 cells [4] = assay: Cell invasion assay; conditions: FIG. 10D
PLA2 [5] = format: biochemical, mouse
PLA2 [6] = format: biochemical, human; conditions: for sensitivity of exosome-associated PLA2 activity to inhibitor: exosomes isolated from human ascites (ExoQuick); for inhibition of ascitic PLA2 activity: cell-free human EOC ascites
EOC cells [7] = assay: Ascites-stimulated proliferation, migration and invasion of EOC cells; conditions: S1 and S3 specimens
PLA2 [8] = format: biochemical, human
EOC metastasis = conditions: with low and non-toxic doses of paclitaxel; shown previously; cited from earlier work
tumors = assay: Tumors from control and BEL-treated mice; format: in vivo, mouse
Source text: Referring now to FIGS. 3A, C and D, PLA2 activities measured from several mouse models for GYN diseases are presented.

sPLA2 = sPLA2 (Apis mellifera, UniProt P00630); format: biochemical, bee
EOC cells [9] = conditions: has been shown (earlier work); cited from earlier work
SKOV3 cells [10] = assay: MTT proliferation assay, ascites-stimulated SKOV3 cells; format: cell-based, human; conditions: S1-stimulated; 10 μM Ki16425

sPLA2, sequence (P00630 34-167 limits assumed): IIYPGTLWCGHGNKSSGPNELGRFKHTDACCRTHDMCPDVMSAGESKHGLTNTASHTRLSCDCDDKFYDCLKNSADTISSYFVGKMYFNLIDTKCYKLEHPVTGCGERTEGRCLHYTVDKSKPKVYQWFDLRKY

CN(C)C(=O)CCSC(SCCC(=O)O)c1cccc(/C=C/c2ccc3ccc(Cl)cc3n2)c1 (centres unmarked) [MK571]
migration of SKOV3 cells to CM from inhibitor-treated macrophages (SKOV3 cells [1]): did not stimulate migration | order of effectiveness in reducing PLA2 activity of CM [2]: MK571>glyburide>CsA | effect on PLA2 activity of CM [2]: dose-responsively reduced

CCCCCCCC/C=C\CCCCCCCC(=O)O [oleic acid]
stimulation of migration (SKOV3 cells [3]): did not stimulate | stimulation of invasion (SKOV3 cells [4]): did not stimulate

COc1ccc(Cl)cc1C(=O)NCCc1ccc(S(=O)(=O)NC(=O)NC2CCCCC2)cc1 [glyburide]
migration of SKOV3 cells to CM from inhibitor-treated macrophages (SKOV3 cells [1]): did not stimulate migration | order of effectiveness in reducing PLA2 activity of CM [2]: MK571>glyburide>CsA | effect on PLA2 activity of CM [2]: dose-responsively reduced

O=C1O/C(=C/Br)CCC1c1cccc2ccccc12 (centres unmarked) [BEL, bromoenol lactone]
sensitivity of PLA2 activities in normal mouse tissues (PLA2 [5]; kidney, lung, liver): insensitivity | effect on sPLA2-like activity of normal mouse kidney tissue (PLA2 [5]; mouse kidney, FIG. 3E): minimally affected | sensitivity of exosome-associated PLA2 activity to inhibitor (PLA2 [6]): proved sensitive | inhibition of ascites-stimulated proliferation, migration and invasion (EOC cells [7]): 20-40% | sensitivity of para-nuclear (cancer) PLA2 activities to inhibitor (PLA2 [8]; frozen human GYN cancer tissue sections, DBPC, FIG. 1D): sensitive | inhibition of EOC metastasis in combination (EOC metastasis): can inhibit EOC metastasis | tumor size / tumorigenesis (tumors; BEL-treated vs control mice): reduces tumorigenesis; also recorded: significantly smaller | PLA2 activity in tumors of treated mice (tumors; tumors from BEL-treated vs control mice, FIG. 3B): greatly reduced | effect on migration of SKOV3 cells induced by S1 fractions (SKOV3 cells [3]): dose-dependently reduced

CN(C)c1nc(N)c(C(=O)N=C(N)N)nc1Cl.Cl [DMA, 5,5-(N—N-Dimethyl)-amiloride hydrochloride]
effect on PLA2 activity detected in CM [2]: Neither inhibitor had any significant effect

methyl-β-cyclodextrin [MBC]
effect on PLA2 activity detected in CM [2]: Neither inhibitor had any significant effect

CCCCCCCCCCCCCCCCSC[C@H](COP(=O)(O)OCC[N+](C)(C)C)NC(=O)CCCCCCCCCCCCCCC [TAPC, thioether amide-PC]
blocking of sPLA2 activity of positive control (sPLA2): blocking sPLA2 activity | inhibition of ascitic PLA2 activity (PLA2 [6]): did not inhibit | sensitivity of exosome-associated PLA2 activity to inhibitor (PLA2 [6]): proved sensitive | sensitivity of tumor PLA2 activity to inhibitor (PLA2 [8]; frozen tumor sections, MAFP 40 μM, TAPC 250 μM, FIG. 7B): but not to an inhibitor of sPLA2

Lysophosphatidylinositol [LPI]
stimulation of migration (SKOV3 cells [3]): did not stimulate | stimulation of invasion (SKOV3 cells [4]): did not stimulate

lysophosphatidylcholine [LPC]
stimulation of EOC cell migration (EOC cells [9]): does not stimulate

CCCCCCCCCCCCCCCCOC[C@@H](O)COP(=O)([O-])OCC[N+](C)(C)C [lyso-PAF, lyso-platelet activating factor]
stimulation of migration (SKOV3 cells [3]): did not stimulate | stimulation of invasion (SKOV3 cells [4]): did not stimulate

O=C1S/C(=C\c2ccc(OCc3cccc(B(O)O)c3)cc2)C(=O)N1Cc1ccc(F)cc1 [HA130]
inhibition of ascites-stimulated proliferation, migration and invasion (EOC cells [7]): 10-45% | effect on migration of SKOV3 cells induced by S1 fractions (SKOV3 cells [3]): dose-dependently reduced

cyclosporine A [CsA]
order of effectiveness in reducing PLA2 activity of CM [2]: MK571>glyburide>CsA | effect on PLA2 activity of CM [2]: dose-responsively reduced

Cc1noc(-c2ccc(CSCCC(=O)O)cc2)c1NC(=O)OC(C)c1ccccc1Cl (centres unmarked) [Ki16425]
proliferation of SKOV3 cells reduced by (SKOV3 cells [10]): 12.4±7.44% | inhibition of migratory activity induced by S1, S3 and P3 fractions (SKOV3 cells [3]; SKOV3 cells pretreated with Ki16425 (10 μM), FIG. 10B): > 70%

O[C@@H](CS)[C@@H](O)CS [DTT]
inhibition of ascitic PLA2 activity (PLA2 [6]): did not inhibit
